The results in this text go back to patent US12269801B2, “Modified amino acids” (SUTRO BIOPHARMA, INC., priority 2012, dated 2025).

Assay [1] in a line: Reactivity of amino acid analogs with DBCO-NH2 (61), absorption at 310 nm. The format is physicochemical. Conditions: 1:1 equivalence; for yield of reaction with compound (61): in six hours; for reaction rate with compound (61): pH 7.4 phosphate buffered saline, compared among analogs. As to the method:
DBCO-NH2 (61) was dissolved in pH 7.4 phosphate buffered saline to yield a 500 µM solution. Amino acid analogs (30), (1), and (2) were dissolved in the same buffer to yield 5 mM clear solutions, and then diluted to a concentration of 500 μM using the same buffer. One hundred microliters of each amino acid analog was mixed with 100 μL of compound (61) and vortexed. The absorption of compound (61) was monitored at 310 nm using a NANODROP 1000 UV Spectrometer. Measurements were obtained at 0, 0.5, 2, 6, and 20 hours. The reduction in the absorption of compound (61) is indicative of its reaction with the amino acid analogs.

Assay [2] can be described thus: Reactivity of azido amino acids with DBCO analog (60), loss of DBCO absorbance at 310 nm. The class given is physicochemical. Conditions: reaction with compound (60); for second-order rate constant: PBS buffer, 25° C., from plot of kobs vs. [Azide]; for rate constant fold higher than compound (50): relative to compound (50). As to the method:
DBCO analog (60), was dissolved in acetonitrile to a concentration of 60 μM. Amino acid analogs (30), (40), and (50) were serially diluted in PBS buffer in the wells of a 96-well microtiter plate to a volume of 180 μL. 20 μL of DBCO analog stock solution was added to each well and the kinetics of the loss of DBCO to form the addition adduct was monitored at 310 nm by absorbance using a SpectraMax plate reader at 25° C. A schematic of the reaction of compounds (30), (40), and (50) with compound (60) is shown as FIG. 1. The kinetics accurately fit a first order decay with […], where kobs is the pseudo first order rate constant with units of sec^−1 under conditions where [Azide compound]>>[DBCO]. A plot of kobs vs. [Azide] yields the second-order rate constant (units of M^−1 sec^−1) for each amino acid, a measure of the intrinsic chemical reactivity of each amino acid.

In another assay the test system is Y50TAG site in GFP. Kind of assay: Cell-free (OCFS) incorporation into GFP at amber codon, fluorescence time course. The class given is biochemical. The source says:
This example describes incorporation of compound (30) into green fluorescent protein. To monitor synthesis of GFP, the DNA encoding turboGFP containing an amber codon (stop codon) before the chromophore was cloned into OCFS expression vector pYD317. The stop codon (TAG) was inserted by overlapping PCR mutagenesis at the nucleotides corresponding to the amino acid tyrosine at the 50th amino acid according to the crystal structure of turboGFP (pdb 2G6X).
[…] OCFS reaction mix was immediately added to microplate for a 30 μL final reaction volume containing 30% S30 extract, 24 μg/mL T7 RNA polymerase, 1 mM L-tyrosine (Sigma, T8566), pre-mix*, 10 μM tRNA, 5 μM pCNFRS D286R, 1 mM compound (30), and 3 nM turboGFP plasmid (Evrogen, Russia, subcloned into a PYD317 vector) in DEPC-treated water (G Biosciences, 786-109). A positive control reaction using turboGFP without the stop codon was used to ensure that the reactions proceeded with rates similar previously observed, while reactions containing turboGFP Y50TAG were also run without tRNA to ensure no fluorescence was detected (negative control) in the absence of the system responsible for incorporation of pAMF. Incorporation of pAMF into GFP achieves relatively high yields of protein in a site-specific manner.

The next assay relates to human GMCSF. Kind of assay: Cell-free incorporation into GM-CSF at amber codon, autoradiography. The conditions noted are these: 1 mM compound (30), TAG at serine position 6. The format is biochemical. As to the method: DNA encoding human GMCSF with amber codon was cloned into expression vector pYD317. The TAG codon was inserted by overlapping PCR mutagenesis at the nucleotides corresponding to the amino acid serine at the position 6.
(§1) Cell-free extracts containing tRNA CUA were thawed to room temperature and incubated with 50 μM iodoacetamide for 30 min. Cell-free reactions were run at 30 C for up to 10 h containing 30% (v/v) iodoacetamide-treated extract with 8 mM magnesium glutamate, 10 mM ammonium glutamate, 130 mM potassium glutamate, 35 mM sodium pyruvate, 1.2 mM AMP, 0.86 mM each of GMP, UMP, and CMP, 2 mM amino acids for all 18 amino acids except tyrosine and phenylalanine which were added at 0.5 mM, 4 mM sodium oxalate, 1 mM putrescine, 1.5 mM spermidine, 15 mM potassium phosphate, 100 nM T7 RNAP, 1.3 μM E. coli DsbC, 2 mM oxidized (GSSG) glutathione, 1 μM tRNA synthetase, and 1 mM compound (30). The concentrations of GMCSF TAG variant plasmid was 5 μg/mL. […]
For reducing gel, 4 μL of sample, 1 μL of 1 M DTT, 7 μL of DI H2O and 4 μL of 4×LDS buffer (Invitrogen, Carlsbad, CA) were mixed and heated in hot blot at 70 C for 5 minutes. Samples were analyzed by 4˜12% Bis-Tris SDS-PAGE gels (Invitrogen, Carlsbad, CA) according to the manufacturer's recommendations. Gels were dried and analyzed by autoradiography using a Storm 840 PhosphoImager after about 16 hours exposure.

For a further assay, the system named is trastuzumab heavy chain. Nature of the assay: Cell-free incorporation into IgG at heavy chain amber codon, autoradiography. The format is biochemical. Conditions: 1 mM compound (30), TAG at serine position 136 (EU index). As to the method:
TAG codon was inserted by overlapping PCR mutagenesis at the nucleotides corresponding to the amino acid serine at the position 136 by EU index in CHI domain.
as §1, with “extracts” for “extracts containing tRNA CUA”, “DsbC, 5 μM yeast PDI,” for “DsbC,”, “glutathione, 15 μM tRNA,” for “glutathione,”, “heavy chain” for “GMCSF”, “and wild type light chain plasmid were 7.5 μg/mL and 2.5 μg/mL respectively.” for “was 5 μg/mL.”
For non reducing gel, 4 μL of sample, 8 μL of DI H2O and 4 μL of 4×LDS buffer (Invitrogen, Carlsbad, CA) were mixed before being loaded on gel. […] Samples were analyzed by 4˜12% Bis-Tris SDS-PAGE gels (Invitrogen, Carlsbad, CA) according to the manufacturer's recommendations. Gels were dried and analyzed by autoradiography using a Storm 840 PhosphoImager after about 16 hours exposure.

For `[N-]=[N+]=NCc1ccc(CC(N)C(=O)O)nc1` (stereo not drawn) [compound (1), 2-Amino-3-(5-azidomethyl-pyridin-2-yl)-propionic Acid], in assay [1], the “yield of reaction with compound (61)” value was “almost quantitative yield” and the “reaction rate with compound (61)” value was “comparable rates”.
In the case of `[N-]=[N+]=NCc1ccc(C[C@H](N)C(=O)O)cn1` [compound (2)], the “reaction rate with compound (61)” value in assay [1] is “two- to four-fold slower”.
As to `[N-]=[N+]=NCc1ccc(C[C@H](N)C(=O)O)cc1` [compound (30)], in assay [2], the second-order rate constant stood at 1.4 M⁻¹ s⁻¹ and the “rate constant fold higher than compound (50)” value is on record as “approximately 7 fold”. In assay [1], the “yield of reaction with compound (61)” value is “almost quantitative yield” and the “reaction rate with compound (61)” value is recorded as “comparable rates”. Besides, the RFU entry in the assay with Y50TAG site in GFP (at 200 minutes) was “approximately 130,000 RFU”. The RFU entry in the assay on Y50TAG site in GFP (at 400 minutes) is given as “approximately 160,000 RFU”. For the same compound, the RFU entry in the assay on Y50TAG site in GFP (at 600 minutes) is “approximately 170,000 RFU”. For the same compound, the “incorporation into GMCSF by autoradiography” value with human GMCSF was “intact full length GMCSF containing compound (30) was made”. Further, in the assay with trastuzumab heavy chain, the “incorporation into IgG by autoradiography” value is on record as “intact full length IgG containing compound (30) was made”.
`[N-]=[N+]=NCCCC(=O)NCCCC[C@H](N)C(=O)O` [compound (40)]: in assay [2], the second-order rate constant came to 1.4 M⁻¹ s⁻¹ and the “rate constant fold higher than compound (50)” value is recorded as “approximately 7 fold”.
With `[N-]=[N+]=Nc1ccc(C[C@H](N)C(=O)O)cc1` [compound (50), p-azido-phenylalanine, reference compound], in assay [2], the second-order rate constant came out at 0.2 M⁻¹ s⁻¹.
